{"source": "patent US7960377B2", "about": "(priority 2008, dated 2011)", "key": {"rat CB2 receptor": {"molecular_target": "T1, rat CB2 receptor (Rattus norvegicus, UniProt Q9QZN9)", "T1 sequence (Q9QZN9 1-360)": "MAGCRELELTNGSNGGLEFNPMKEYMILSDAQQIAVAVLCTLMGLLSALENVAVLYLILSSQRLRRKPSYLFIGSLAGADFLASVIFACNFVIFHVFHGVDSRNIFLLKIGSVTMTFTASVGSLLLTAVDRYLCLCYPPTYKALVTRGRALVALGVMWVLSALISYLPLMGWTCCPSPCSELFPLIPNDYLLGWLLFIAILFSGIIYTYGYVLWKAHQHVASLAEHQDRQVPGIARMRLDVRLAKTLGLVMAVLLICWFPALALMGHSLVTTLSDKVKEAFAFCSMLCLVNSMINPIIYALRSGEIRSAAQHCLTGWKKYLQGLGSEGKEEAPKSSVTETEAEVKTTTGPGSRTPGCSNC", "assay": "cell-based", "type": "cell-based"}, "human CB1 receptor": {"molecular_target": "human CB1 receptor (Homo sapiens, UniProt P21554)", "sequence (P21554 whole entry)": "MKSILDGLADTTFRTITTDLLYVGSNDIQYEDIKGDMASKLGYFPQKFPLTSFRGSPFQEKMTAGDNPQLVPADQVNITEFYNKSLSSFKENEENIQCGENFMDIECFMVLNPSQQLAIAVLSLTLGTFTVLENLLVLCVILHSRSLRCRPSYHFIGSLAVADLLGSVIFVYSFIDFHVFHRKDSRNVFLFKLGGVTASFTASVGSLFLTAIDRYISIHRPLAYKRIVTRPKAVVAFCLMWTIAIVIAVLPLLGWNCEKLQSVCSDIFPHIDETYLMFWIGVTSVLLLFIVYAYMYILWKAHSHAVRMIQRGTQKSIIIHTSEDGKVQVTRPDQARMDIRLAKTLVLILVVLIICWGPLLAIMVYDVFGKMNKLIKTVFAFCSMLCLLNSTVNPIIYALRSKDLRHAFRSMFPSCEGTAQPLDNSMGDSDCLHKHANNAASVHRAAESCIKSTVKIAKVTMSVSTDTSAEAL", "assay": "cell-based"}}}
{"compound": "CC(C)(C)NC(=O)c1cnc2c(c1)N(S(=O)(=O)c1ccccc1F)CCO2", "note": "[Example 22, N-tert-butyl-1-(2-fluorophenylsulfonyl)-2,3-dihydro-1H-pyrido[2,3-b][1,4]oxazine-7-carboxamide]", "values": [{"measurement": "EC50", "setting": "rat CB2 receptor", "value": "≤ 30", "unit": "nM"}, {"measurement": "EC50", "setting": "human CB1 receptor", "value": "> 30000", "unit": "nM"}]}
{"compound": "O=C(NC1CCCC1)c1cnc2c(c1)N(S(=O)(=O)c1ccccc1F)CCO2", "note": "[Example 23, N-cyclopentyl-1-(2-fluorophenylsulfonyl)-2,3-dihydro-1H-pyrido[2,3-b][1,4]oxazine-7-carboxamide]", "values": [{"measurement": "EC50", "setting": "rat CB2 receptor", "value": "≤ 30", "unit": "nM"}, {"measurement": "EC50", "setting": "human CB1 receptor", "value": "> 30000", "unit": "nM"}]}
{"compound": "CC(C)(C)NC(=O)c1cnc2c(c1)N(S(=O)(=O)c1ccc(C(F)(F)F)cc1)CCO2", "note": "[Example 26, N-tert-butyl-1-(4-(trifluoromethyl)phenylsulf-onyl)-2,3-dihydro-1H-pyrido[2,3-b][1,4]oxazine-7-carboxamide]", "values": [{"measurement": "EC50", "setting": "rat CB2 receptor", "value": "≤ 30", "unit": "nM"}, {"measurement": "EC50", "setting": "human CB1 receptor", "value": "> 30000", "unit": "nM"}]}
{"compound": "O=C(NC1CCCC1)c1cnc2c(c1)N(S(=O)(=O)c1ccc(C(F)(F)F)cc1)CCO2", "note": "[Example 27, N-cyclopentyl-1-(4-(trifluoromethyl)phenylsulf-onyl)-2,3-dihydro-1H-pyrido[2,3-b][1,4]oxazine-7-carboxamide]", "values": [{"measurement": "EC50", "setting": "rat CB2 receptor", "value": "≤ 30", "unit": "nM"}, {"measurement": "EC50", "setting": "human CB1 receptor", "value": "> 30000", "unit": "nM"}]}
{"compound": "O=C(NCC1CC1)c1cnc2c(c1)N(S(=O)(=O)c1ccc(Cl)cc1)CCO2", "note": "[Example 33, 1-(4-chlorophenyl-sulfonyl)-N-(cyclopropyl-methyl)-2,3-dihydro-1H-pyrido[2,3-b][1,4]oxazine-7-carboxamide]", "values": [{"measurement": "EC50", "setting": "rat CB2 receptor", "value": "≤ 30", "unit": "nM"}, {"measurement": "EC50", "setting": "human CB1 receptor", "value": "> 30000", "unit": "nM"}]}
{"compound": "CN(C(=O)c1cnc2c(c1)N(S(=O)(=O)c1ccc(C(F)(F)F)cc1)CCO2)C(C)(C)C", "note": "[Example 40, N-tert-butyl-N-methyl-1-(4-(trifluoromethyl)-phenylsulfonyl)-2,3-dihydro-1H-pyrido[2,3-b][1,4]oxazine-7-carboxamide]", "values": [{"measurement": "EC50", "setting": "rat CB2 receptor", "value": "≤ 30", "unit": "nM"}, {"measurement": "EC50", "setting": "human CB1 receptor", "value": "> 30000", "unit": "nM"}]}
{"compound": "COCCN(C(=O)c1cnc2c(c1)N(S(=O)(=O)c1ccc(C(F)(F)F)cc1)CCO2)C(C)(C)C", "note": "[Example 43, N-tert-butyl-N-(2-methoxyethyl)-1-(4-(trifluoromethyl)phenylsulf-onyl)-2,3-dihydro-1H-pyrido[2,3-b][1,4]oxazine-7-carboxamide]", "values": [{"measurement": "EC50", "setting": "rat CB2 receptor", "value": "≤ 30", "unit": "nM"}, {"measurement": "inverse agonist mark, human CB1 receptor", "setting": "human CB1 receptor; asterisk at the compound number", "value": "11, 24, 25, 42, 43*, 67, 117*, 121, 124, 131, 132, 148, 150, 151,"}]}
{"compound": "CC(C)(CN1CCOCC1)NC(=O)c1cnc2c(c1)N(S(=O)(=O)c1ccc(C(F)(F)F)cc1)CCO2", "note": "[Example 46, N-(2-methyl-1-morpholinopropan-2-yl)-1-(4-(trifluoromethyl)phenylsulfonyl)-2,3-dihydro-1H-pyrido[2,3-b][1,4]oxazine-7-carboxamide]", "values": [{"measurement": "EC50", "setting": "rat CB2 receptor", "value": "≤ 30", "unit": "nM"}, {"measurement": "EC50", "setting": "human CB1 receptor", "value": "> 30000", "unit": "nM"}]}
{"compound": "CC(C)(C)NC(=O)c1cnc2c(c1)N(S(=O)(=O)c1ccc(OC(F)(F)F)cc1)CCO2", "note": "[Example 48, N-tert-butyl-1-(4-(trifluoromethoxy)phenyl-sulfonyl)-2,3-dihydro-1H-pyrido[2,3-b][1,4]oxazine-7-carboxamide]", "values": [{"measurement": "EC50", "setting": "rat CB2 receptor", "value": "≤ 30", "unit": "nM"}, {"measurement": "EC50", "setting": "human CB1 receptor", "value": "> 30000", "unit": "nM"}]}
{"compound": "Cc1ccc(S(=O)(=O)N2CCOc3ncc(C(=O)NC(C)(C)C)cc32)s1", "note": "[Example 59, N-tert-butyl-1-(5-methylthiophen-2-ylsulfonyl)-2,3-dihydro-1H-pyrido[2,3-b][1,4]oxazine-7-carboxamide]", "values": [{"measurement": "EC50", "setting": "rat CB2 receptor", "value": "≤ 30", "unit": "nM"}, {"measurement": "EC50", "setting": "human CB1 receptor", "value": "> 30000", "unit": "nM"}]}
{"compound": "CCC(CO)(CO)NC(=O)c1cnc2c(c1)N(S(=O)(=O)c1ccc(C(F)(F)F)cc1)CCO2", "note": "[Example 64, N-(1-hydroxy-2-(hydroxymethyl)butan-2-yl)-1-(4-(trifluoromethyl)phenylsulf-onyl)-2,3-dihydro-1H-pyrido[2,3-b][1,4]oxazine-7-carboxamide]", "values": [{"measurement": "EC50", "setting": "rat CB2 receptor", "value": "≤ 30", "unit": "nM"}, {"measurement": "EC50", "setting": "human CB1 receptor", "value": "> 30000", "unit": "nM"}]}
{"compound": "CC(C)(C)CC(C)(C)NC(=O)c1cnc2c(c1)N(S(=O)(=O)c1ccc(C(F)(F)F)cc1)CCO2", "note": "[Example 65, 1-(4-(trifluoromethyl)-phenylsulfonyl)-N-(2,4,4-trimethylpentan-2-yl)-2,3-dihydro-1H-pyrido[2,3-b][1,4]oxazine-7-carboxamide]", "values": [{"measurement": "EC50", "setting": "rat CB2 receptor", "value": "≤ 30", "unit": "nM"}, {"measurement": "EC50", "setting": "human CB1 receptor", "value": "> 30000", "unit": "nM"}]}
{"compound": "COC(=O)[C@@H]1CCCCN1C(=O)c1cnc2c(c1)N(S(=O)(=O)c1ccc(C(F)(F)F)cc1)CCO2", "note": "[Example 68, (S)-methyl 1-(1-(4-(trifluoromethyl)phenylsulf-onyl)-2,3-dihydro-1H-pyrido[2,3-b][1,4]oxazine-7-carbonyl)piperidine-2-carboxylate]", "values": [{"measurement": "EC50", "setting": "rat CB2 receptor", "value": "≤ 30", "unit": "nM"}, {"measurement": "EC50", "setting": "human CB1 receptor", "value": "> 30000", "unit": "nM"}]}
{"compound": "CCOC(=O)C1(NC(=O)c2cnc3c(c2)N(S(=O)(=O)c2ccc(C(F)(F)F)cc2)CCO3)CC1", "note": "[Example 70, ethyl 1-(1-(4-(trifluoromethyl)phenylsulf-onyl)-2,3-dihydro-1H-pyrido[2,3-b][1,4]oxazine-7-carboxamido)-cyclopropanecarboxylate]", "values": [{"measurement": "EC50", "setting": "rat CB2 receptor", "value": "≤ 30", "unit": "nM"}, {"measurement": "EC50", "setting": "human CB1 receptor", "value": "> 30000", "unit": "nM"}]}
{"compound": "CCOC(=O)C1(NC(=O)c2cnc3c(c2)N(S(=O)(=O)c2ccc(C(F)(F)F)cc2)CCO3)CCC1", "note": "[Example 71, ethyl 1-(1-(4-(trifluoro-methyl)phenylsulfonyl)-2,3-dihydro-1H-pyrido-[2,3-b][1,4]oxazine-7-carboxamido)cyclo-butanecarboxylate]", "values": [{"measurement": "EC50", "setting": "rat CB2 receptor", "value": "≤ 30", "unit": "nM"}, {"measurement": "EC50", "setting": "human CB1 receptor", "value": "> 30000", "unit": "nM"}]}
{"compound": "CC(C)(C)NC(=O)c1cnc2c(c1)N(S(=O)(=O)c1cccc(C(F)(F)F)c1)CCO2", "note": "[Example 83, N-tert-butyl-1-(3-(trifluoromethyl)phenylsulf-onyl)-2,3-dihydro-1H-pyrido[2,3-b][1,4]oxazine-7-carboxamide]", "values": [{"measurement": "EC50", "setting": "rat CB2 receptor", "value": "≤ 30", "unit": "nM"}, {"measurement": "EC50", "setting": "human CB1 receptor", "value": "> 30000", "unit": "nM"}]}
{"compound": "CC(C)(C)NC(=O)c1cnc2c(c1)N(S(=O)(=O)c1cccc(Cl)c1)CCO2", "note": "[Example 89, N-tert-butyl-1-(3-chlorophenylsulfonyl)-2,3-dihydro-1H-pyrido[2,3-b][1,4]oxazine-7-carboxamide]", "values": [{"measurement": "EC50", "setting": "rat CB2 receptor", "value": "≤ 30", "unit": "nM"}, {"measurement": "EC50", "setting": "human CB1 receptor", "value": "> 30000", "unit": "nM"}]}
{"compound": "CC(C)(C)NC(=O)c1cnc2c(c1)N(S(=O)(=O)c1ccsc1)CCO2", "note": "[Example 90, N-tert-butyl-1-(thiophen-3-ylsulfonyl)-2,3-dihydro-1H-pyrido[2,3-b][1,4]oxazine-7-carboxamide]", "values": [{"measurement": "EC50", "setting": "rat CB2 receptor", "value": "≤ 30", "unit": "nM"}, {"measurement": "EC50", "setting": "human CB1 receptor", "value": "> 30000", "unit": "nM"}]}
{"compound": "Cc1csc(S(=O)(=O)N2CCOc3ncc(C(=O)NC(C)(C)C)cc32)c1", "note": "[Example 92, N-tert-butyl-1-(4-methylthiophen-2-ylsulfonyl)-2,3-dihydro-1H-pyrido[2,3-b][1,4]oxazine-7-carboxamide]", "values": [{"measurement": "EC50", "setting": "rat CB2 receptor", "value": "≤ 30", "unit": "nM"}, {"measurement": "EC50", "setting": "human CB1 receptor", "value": "> 30000", "unit": "nM"}]}
{"compound": "CC(C)(CO)NC(=O)c1cnc2c(c1)N(S(=O)(=O)c1ccc(Cl)c(Cl)c1)CCO2", "note": "[Example 95, 1-(3,4-dichlorophenylsulfonyl)-N-(1-hydroxy-2-methylpropan-2-yl)-2,3-dihydro-1H-pyrido[2,3-b][1,4]oxazine-7-carboxamide]", "values": [{"measurement": "EC50", "setting": "rat CB2 receptor", "value": "≤ 30", "unit": "nM"}, {"measurement": "EC50", "setting": "human CB1 receptor", "value": "> 30000", "unit": "nM"}]}
{"compound": "CC(C)(CO)NC(=O)c1cnc2c(c1)N(S(=O)(=O)c1ccc(Cl)cc1F)CCO2", "note": "[Example 96, 1-(4-chloro-2-fluorophenylsulfonyl)-N-(1-hydroxy-2-methylpropan-2-yl)-2,3-dihydro-1H-pyrido[2,3-b][1,4]oxazine-7-carboxamide]", "values": [{"measurement": "EC50", "setting": "rat CB2 receptor", "value": "≤ 30", "unit": "nM"}, {"measurement": "EC50", "setting": "human CB1 receptor", "value": "> 30000", "unit": "nM"}]}
{"compound": "CC(C)(O)CNC(=O)c1cnc2c(c1)N(S(=O)(=O)c1ccc(Cl)cc1F)CCO2", "note": "[Example 97, 1-(4-chloro-2-fluorophenylsulfonyl)-N-(2-hydroxy-2-methylpropyl)-2,3-dihydro-1H-pyrido[2,3-b][1,4]oxazine-7-carboxamide]", "values": [{"measurement": "EC50", "setting": "rat CB2 receptor", "value": "≤ 30", "unit": "nM"}, {"measurement": "EC50", "setting": "human CB1 receptor", "value": "> 30000", "unit": "nM"}]}
